Measured values published in PMC10504544, “1-deoxy-D-xylulose-5-phosphate synthase from Pseudomonas aeruginosa and Klebsiella pneumoniae reveals conformational changes upon cofactor binding” (The Journal of Biological Chemistry, 2023).

Columns and labels:
Format in all cases: biochemical
[1] = target: T1, 1-deoxy-D-xylulose-5-phosphate synthase (kpDXPS) (Klebsiella pneumoniae, UniProt A6T5F3, DEL197-240/INS196GGGGGG); test: IspC-coupled spectrophotometric assay
T1 construct: gene dxs; truncated kpDXPS; residues 197 to 240 replaced with a six glycine unit

[2] = target: T2, 1-deoxy-D-xylulose-5-phosphate synthase (paDXPS) (Pseudomonas aeruginosa, UniProt B7V7R4, DEL206-245/INS205GGGGGG); test: co-crystal structure ([…] Å); coupled spectrophotometric inhibition assay
T2 construct: gene dxs; truncated paDXPS; residues 206 to 245 replaced with a six glycine unit

[3] = target: T3, 1-deoxy-D-xylulose-5-phosphate synthase (paDXPS) (Pseudomonas aeruginosa, UniProt B7V7R4, DEL206-245/INS205GGGGGG); test: IspC-coupled spectrophotometric assay; mode-of-inhibition study
T3 construct: gene dxs
T3 sequence (B7V7R4 1-627 INS205GGGGGG/DEL206-245): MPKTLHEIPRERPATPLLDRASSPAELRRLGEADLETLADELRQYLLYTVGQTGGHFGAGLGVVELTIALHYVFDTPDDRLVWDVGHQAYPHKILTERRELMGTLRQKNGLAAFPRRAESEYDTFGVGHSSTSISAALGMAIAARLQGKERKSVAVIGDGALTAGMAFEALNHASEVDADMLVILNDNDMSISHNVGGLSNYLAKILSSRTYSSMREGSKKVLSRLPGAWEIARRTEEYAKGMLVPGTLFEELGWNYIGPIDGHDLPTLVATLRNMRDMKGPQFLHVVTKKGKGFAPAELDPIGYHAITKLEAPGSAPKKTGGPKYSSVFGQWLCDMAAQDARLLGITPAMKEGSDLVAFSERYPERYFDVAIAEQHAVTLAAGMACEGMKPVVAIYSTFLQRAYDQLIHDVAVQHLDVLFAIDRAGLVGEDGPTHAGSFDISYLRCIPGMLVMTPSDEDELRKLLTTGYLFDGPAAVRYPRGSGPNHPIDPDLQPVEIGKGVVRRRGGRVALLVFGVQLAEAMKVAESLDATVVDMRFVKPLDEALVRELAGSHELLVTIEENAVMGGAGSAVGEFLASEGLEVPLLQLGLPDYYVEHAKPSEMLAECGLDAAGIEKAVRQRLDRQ

T1 sequence (A6T5F3 whole entry, stated change not applied, the tested form may be a part): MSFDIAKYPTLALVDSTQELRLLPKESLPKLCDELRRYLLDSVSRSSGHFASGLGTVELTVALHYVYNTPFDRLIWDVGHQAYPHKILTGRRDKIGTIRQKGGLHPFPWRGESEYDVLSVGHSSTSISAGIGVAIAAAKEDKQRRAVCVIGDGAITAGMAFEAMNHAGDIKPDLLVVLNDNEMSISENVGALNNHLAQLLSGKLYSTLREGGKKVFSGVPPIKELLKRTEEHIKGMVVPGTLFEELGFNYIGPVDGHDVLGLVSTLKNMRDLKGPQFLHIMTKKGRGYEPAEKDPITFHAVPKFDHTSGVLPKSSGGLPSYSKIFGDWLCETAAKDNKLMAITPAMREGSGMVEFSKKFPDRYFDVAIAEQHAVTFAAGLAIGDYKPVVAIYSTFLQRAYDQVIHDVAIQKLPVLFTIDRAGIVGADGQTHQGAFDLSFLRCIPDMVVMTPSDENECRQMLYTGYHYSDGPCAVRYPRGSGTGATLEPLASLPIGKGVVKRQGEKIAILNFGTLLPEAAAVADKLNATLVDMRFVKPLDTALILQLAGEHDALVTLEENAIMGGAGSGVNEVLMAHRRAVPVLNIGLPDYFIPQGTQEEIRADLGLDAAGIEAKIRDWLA

| Compound | IC50 [1] | IC50 [2] | IC50 [3] |
| --- | --- | --- | --- |
| Cc1ncc(Cc2cccc(CCO)c2)c(N)n1 [2-{3-[(4-Amino-2-Methylpyrimidin-5-Yl)methyl]phenyl}ethanol] | 94 µM | 197 µM |  |
| O=C(O)C(=O)CF [fluoropyruvate] |  |  | ~27 µM |
